Measured values: PubChem BioAssay AID2060906 (Molecular Pharmacology Branch, DTP, NCI, 2025)

System: 485176-168-R4-J1-PDC complex spheroid growth
Test: Anticancer human tumor 485176-168-R4-J1-PDC patient-derived pancreatic adenocarcinoma cell line growth inhibition [RAS]
Details: for viability, T/C: stronger effect = lower value
Procedure, shortened: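 Tumour cells grown as complex spheroids with HUVEC endothelial cells and mesenchymal stem cells, treated with RAS pathway inhibitor combinations. Each agent spans half-log steps from near clinical Cmax, or 10 microM where Cmax is unknown.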

[1] = curve of first compound, second compound 0.000949 µM
[2] = curve of first compound, second compound 0.003 µM
[3] = curve of first compound, second compound 0.00949 µM
[4] = curve of first compound, second compound 0.03 µM
[5] = curve of first compound, second compound 0.0949 µM
[6] = curve of first compound, second compound 0.3 µM
[7] = second compound 0.000949 µM, first compound 0.0316 µM
[8] = second compound 0.000949 µM, first compound 0.1 µM
[9] = second compound 0.000949 µM, first compound 0.316 µM
[10] = second compound 0.000949 µM, first compound 1 µM
[11] = second compound 0.003 µM, first compound 0.0316 µM
[12] = second compound 0.003 µM, first compound 0.1 µM
[13] = second compound 0.003 µM, first compound 0.316 µM
[14] = second compound 0.003 µM, first compound 1 µM
[15] = second compound 0.00949 µM, first compound 0.0316 µM
[16] = second compound 0.00949 µM, first compound 0.1 µM
[17] = second compound 0.00949 µM, first compound 0.316 µM
[18] = second compound 0.00949 µM, first compound 1 µM
[19] = second compound 0.03 µM, first compound 0.0316 µM
[20] = second compound 0.03 µM, first compound 0.1 µM
[21] = second compound 0.03 µM, first compound 0.316 µM
[22] = second compound 0.03 µM, first compound 1 µM
[23] = second compound 0.0949 µM, first compound 0.0316 µM
[24] = second compound 0.0949 µM, first compound 0.1 µM
[25] = second compound 0.0949 µM, first compound 0.316 µM
[26] = second compound 0.0949 µM, first compound 1 µM
[27] = second compound 0.3 µM, first compound 0.0316 µM
[28] = second compound 0.3 µM, first compound 0.1 µM
[29] = second compound 0.3 µM, first compound 0.316 µM
[30] = second compound 0.3 µM, first compound 1 µM
[31] = second compound 0.000949 µM, first compound 3.16 µM
[32] = second compound 0.000949 µM, first compound 10 µM
[33] = second compound 0.003 µM, first compound 3.16 µM
[34] = second compound 0.003 µM, first compound 10 µM
[35] = second compound 0.00949 µM, first compound 3.16 µM
[36] = second compound 0.00949 µM, first compound 10 µM
[37] = second compound 0.03 µM, first compound 3.16 µM
[38] = second compound 0.03 µM, first compound 10 µM
[39] = second compound 0.0949 µM, first compound 3.16 µM
[40] = second compound 0.0949 µM, first compound 10 µM
[41] = second compound 0.3 µM, first compound 3.16 µM
[42] = second compound 0.3 µM, first compound 10 µM
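Note: spheroids exposed to compounds for seven days before readout.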
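Throughout, for viability, T/C: luminescence viability expressed relative to DMSO vehicle wells set as 100%.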

O=C(c1ccc(F)c(F)c1Nc1ccc(I)cc1F)N1CC(O)([C@@H]2CCCCN2)C1 + CCn1c(-c2cc(N3CCN(C)CC3)cnc2C(C)OC)c2c3cc(ccc31)-c1csc(n1)CC(NC(=O)C1CC1C)C(=O)N1CCCC(N1)C(=O)OCC(C)(C)C2
IC50 [1]: 116 nM | IC50 [2]: 90.2 nM | IC50 [3]: 33 nM | IC50 [4]: 22.9 nM | IC50 [5]: 14.5 nM | IC50 [6]: < 3.16 nM | viability, T/C (second compound 0.000949 µM, first compound 0.00316 µM): 87.1% | viability, T/C (second compound 0.000949 µM, first compound 0.01 µM): 62.7% | viability, T/C [7]: 65.1% | viability, T/C [8]: 51% | viability, T/C [9]: 43.8% | viability, T/C [10]: 34.1% | viability, T/C (second compound 0.003 µM, first compound 0.00316 µM): 85.9% | viability, T/C (second compound 0.003 µM, first compound 0.01 µM): 75.5% | viability, T/C [11]: 63.8% | viability, T/C [12]: 48.5% | viability, T/C [13]: 38.8% | viability, T/C [14]: 35.2% | viability, T/C (second compound 0.00949 µM, first compound 0.00316 µM): 75.3% | viability, T/C (second compound 0.00949 µM, first compound 0.01 µM): 56.6% | viability, T/C [15]: 51.7% | viability, T/C [16]: 45.9% | viability, T/C [17]: 36.1% | viability, T/C [18]: 35% | viability, T/C (second compound 0.03 µM, first compound 0.00316 µM): 62.5% | viability, T/C (second compound 0.03 µM, first compound 0.01 µM): 59.3% | viability, T/C [19]: 45.2% | viability, T/C [20]: 38.8% | viability, T/C [21]: 31.3% | viability, T/C [22]: 31.4% | viability, T/C (second compound 0.0949 µM, first compound 0.00316 µM): 65.4% | viability, T/C (second compound 0.0949 µM, first compound 0.01 µM): 56.9% | viability, T/C [23]: 36.5% | viability, T/C [24]: 37.2% | viability, T/C [25]: 30.9% | viability, T/C [26]: 25.7% | viability, T/C (second compound 0.3 µM, first compound 0.00316 µM): 48.6% | viability, T/C (second compound 0.3 µM, first compound 0.01 µM): 44.4% | viability, T/C [27]: 36.6% | viability, T/C [28]: 28.6% | viability, T/C [29]: 28.8% | viability, T/C [30]: 25.9%

CC1(O)CCCC1n1c(=O)c(C(F)F)cc2cnc(NC3CCN(S(C)(=O)=O)CC3)nc21 (configuration not stated) + CCn1c(-c2cc(N3CCN(C)CC3)cnc2C(C)OC)c2c3cc(ccc31)-c1csc(n1)CC(NC(=O)C1CC1C)C(=O)N1CCCC(N1)C(=O)OCC(C)(C)C2
IC50 [1]: 1460 nM | IC50 [2]: 3440 nM | IC50 [3]: 1720 nM | IC50 [4]: 1660 nM | IC50 [5]: 1390 nM | IC50 [6]: 1510 nM | viability, T/C [7]: 81.1% | viability, T/C [8]: 67.5% | viability, T/C [9]: 63% | viability, T/C [10]: 48.1% | viability, T/C [31]: 48.4% | viability, T/C [32]: 2.12% | viability, T/C [11]: 73.9% | viability, T/C [12]: 56% | viability, T/C [13]: 71.5% | viability, T/C [14]: 59.7% | viability, T/C [33]: 54.9% | viability, T/C [34]: 1.93% | viability, T/C [15]: 78.6% | viability, T/C [16]: 68.6% | viability, T/C [17]: 60.8% | viability, T/C [18]: 61.5% | viability, T/C [35]: 41.5% | viability, T/C [36]: 1.63% | viability, T/C [19]: 63.7% | viability, T/C [20]: 50.4% | viability, T/C [21]: 56.6% | viability, T/C [22]: 56% | viability, T/C [37]: 43.1% | viability, T/C [38]: 1.78% | viability, T/C [23]: 59.4% | viability, T/C [24]: 60.9% | viability, T/C [25]: 51.3% | viability, T/C [26]: 49.4% | viability, T/C [39]: 44.7% | viability, T/C [40]: 2.07% | viability, T/C [27]: 75.7% | viability, T/C [28]: 48.5% | viability, T/C [29]: 44% | viability, T/C [30]: 58.9% | viability, T/C [41]: 43% | viability, T/C [42]: 1.81%

NC1c2ccccc2OC12CCN(c1cnc3c(N4CCCc5ncccc54)n[nH]c3n1)CC2 (configuration not stated)
viability, T/C (compound 0.1 µM): 79.2% [middle of 4 runs] | viability, T/C (compound 0.316 µM): 86.1% [middle of 4 runs] | viability, T/C (compound 1 µM): 85.1% [middle of 4 runs] | viability, T/C (compound 3.16 µM): 84.5% [middle of 4 runs] | viability, T/C (compound 10 µM): 72.2% [middle of 4 runs] | IC50 (curve of compound): > 10000 nM

Cc1nc(N2CCC3(CC2)COC(C)C3N)c(CO)nc1Sc1ccnc(N)c1Cl (configuration not stated) + CCn1c(-c2cc(N3CCN(C)CC3)cnc2C(C)OC)c2c3cc(ccc31)-c1csc(n1)CC(NC(=O)C1CC1C)C(=O)N1CCCC(N1)C(=O)OCC(C)(C)C2
IC50 [1]: > 10000 nM | IC50 [2]: > 10000 nM | IC50 [3]: > 10000 nM | IC50 [4]: > 10000 nM | IC50 [5]: > 10000 nM | IC50 [6]: > 10000 nM | viability, T/C [7]: 90.6% | viability, T/C [8]: 83.5% | viability, T/C [9]: 84.1% | viability, T/C [10]: 72.8% | viability, T/C [31]: 77.5% | viability, T/C [32]: 75.7% | viability, T/C [11]: 82.7% | viability, T/C [12]: 68.7% | viability, T/C [13]: 87.8% | viability, T/C [14]: 83.6% | viability, T/C [33]: 83.8% | viability, T/C [34]: 82.8% | viability, T/C [15]: 94.3% | viability, T/C [16]: 80.1% | viability, T/C [17]: 80.4% | viability, T/C [18]: 78.5% | viability, T/C [35]: 77.2% | viability, T/C [36]: 68% | viability, T/C [19]: 77.1% | viability, T/C [20]: 74.6% | viability, T/C [21]: 94.7% | viability, T/C [22]: 82.5% | viability, T/C [37]: 90% | viability, T/C [38]: 63.4% | viability, T/C [23]: 85.2% | viability, T/C [24]: 93.2% | viability, T/C [25]: 59.9% | viability, T/C [26]: 75% | viability, T/C [39]: 80.7% | viability, T/C [40]: 70.4% | viability, T/C [27]: 78.8% | viability, T/C [28]: 72.9% | viability, T/C [29]: 63.2% | viability, T/C [30]: 56.9% | viability, T/C [41]: 76.5% | viability, T/C [42]: 65.3%
